From patent EP4775586A1, “DEUTERATED TETRACYCLIC DERIVATIVE AND USE THEREOF” (priority 2023, dated 2025)
Values after ≈ are worked out from the molar mass of the structure shown. Values joined by “and” are separate entries in the source; they are usually repeats but may differ in a detail not shown here. Identical values can stand only once. Counter-ions that a name gives are not always drawn. Like-named read-outs stand apart in the source and are kept apart here.

Assays:
[1] = tested on: Mycobacterium tuberculosis H37Rv; assay: Minimum inhibitory concentration (MIC90) against Mycobacterium tuberculosis H37Rv, Middlebrook 7H9, 96-well plate, 15 days; assay type: cell-based
[2] = tested on: Mycobacterium tuberculosis H37Rv; assay type: in vivo, BALB/c mice; details: mouse, in vivo
[3] = Pharmacokinetics and lung tissue distribution in mice, LC-MS/MS; assay type: in vivo, Balb/C mice; details: 100 mg/kg
Description: In this example, the pharmacokinetic parameters and lung tissue distribution of the deuterated compounds YF027, YF032, YF036, and YF044 and their respective non-deuterated control compounds (A, B, C, and D) were determined.
Balb/C mice, male (1 group at each time point, 5 mice per group, 55 mice per compound in total), 7-8 weeks old, weighing about 20 g, animal source: Beijing Vital River Laboratory Animal Technology Co., Ltd.
The test compound was completely dissolved in an 8% Tween-80 aqueous solution. A 10 mg/mL drug liquid was prepared for intraperitoneal injection and intragastric administration.
Single intragastric administration was performed at a dose of 100 mg/kg. The pharmacokinetic differences between the deuterated compounds YF027, YF032, YF036, and YF044 and their respective non-deuterated controls A, B, C, and D were compared.
The mice were fasted overnight before administration. In the experiment, orbital venous blood and lung tissue were collected from the mice at time points of no administration group (0 min) and 10 min, 20 min, 30 min, 1 h, 2 h, 3 h, 4 h, 6 h, 8 h, and 24 h after intragastric administration, and about 300 µL of blood was collected from the eyeballs each time.
The collected blood sample was placed in an anticoagulation tube, and quickly inverted and mixed well. The tube was temporarily placed on ice after being labeled. The blood samples temporarily stored on ice were subjected to low-temperature centrifugation within 1 h at 4 °C at 3000 rpm for 10 min. The supernatant obtained after centrifugation was plasma. The plasma was transferred to a new centrifuge tube and stored in a refrigerator at -80 °C for subsequent detection.
The lung tissues of the mice were collected, washed with pre-cooled normal saline to remove the residual blood and tissue fluid, dried with absorbent paper, weighed with a balance, and placed into a centrifuge tube. The tubes were marked and stored in a refrigerator at -80 °C.
The concentrations of the compounds of the present disclosure and control compounds in plasma and lung tissue were determined using LC-MS/MS. Table 2. Pharmacokinetic parameters of compound YF027 of the present disclosure and control compound A

[4] = Mycobacterium tuberculosis H37Rv, 15 days of incubation, 90% inhibition of growth, visual reading
[5] = Balb/C mice, single intragastric administration, plasma
[6] = Mycobacterium tuberculosis, H37RV, 360 h, Mycobacterium tuberculosis H37Rv, 15 days of incubation, 90% inhibition of growth, visual reading
[7] = 360 h, Mycobacterium tuberculosis H37Rv, 15 days of incubation, 90% inhibition of growth, visual reading, read-out: MIC90

Compound: 8-((4-(3-Chlorophenyl)piperidin-1-yl-2,2,6,6-d4)methyl-d2)-3,9-dihydroxybenzo[5,6]oxepino[4,3-b]benzofuran-7(5H)-one hydrochloride [YF032]
- MIC90 [1, 4]: 0.0625 µg/mL
- reduction in bacterial load [2]: 0.81 log
- AUC0-∞ [3, 5]: 14032.28 ng·h/mL
- CL [3, 5]: 119 mL/min/kg
- Cmax [3, 5]: 4332.29 ng/mL
- Tmax [3, 5]: 1.00 h
- t1/2 [3, 5]: 1.85 h
- AUC0-t ([3]; Balb/C mice, single intragastric administration, plasma, 1440 min): 14030.17 ng·h/mL

Compound: [2H]C1([2H])CCCC([2H])([2H])N1C([2H])([2H])c1c(O)cc(C(C)(C)C)c2oc3c4ccc(O)cc4oc(=O)c3c12 [YF003, 10-(tert-Butyl)-3,8-dihydroxy-7-((piperidin-1-yl-2,2,6,6-d4)methyl-d2)-6H-benzofuran[3,2-c]chromen-6-one]
- MIC90 [1, 6]: ≤ 0.0039 µg/mL

Compound: CCCC(O)C1CCN(Cc2c(O)ccc3oc4c(c23)C(=O)OCc2cc(O)ccc2-4)CC1 (stereo not drawn) [Compound D]
- MIC90 [1, 7]: 0.0156 µg/mL (≈ 0.0346 µM)
- AUC(0-inf) ([3]; mouse, in vivo, po): 4500 ng·h/mL
- AUC(0-t) at 24 h ([3]; mouse, in vivo, po): 4470 ng·h/mL
- CL ([3]; mouse, in vivo, po): 371.3 mL/min/kg
- Cmax ([3]; mouse, in vivo, po): 2110 ng/mL and 13500 ng/g
- half-life ([3]; mouse, in vivo, po): 2.86 h

Compound: [2H]C([2H])(c1c(O)ccc2oc3c(c12)C(=O)OCc1cc(O)ccc1-3)N1CCC(C(=O)CCC)CC1 [YF010, 8-((4-Butanoyl)piperidin-1-ylmethyl-d2)-3,9-dihydroxybenzo[5,6]oxepino[4,3-b]benzofuran-7(5H)-one]
- MIC90 [1, 6]: 0.0625 µg/mL (≈ 0.138 µM)

Compound: [2H]C([2H])(c1c(O)cc(C(C)(C)C)c2oc3c4ccc(O)cc4oc(=O)c3c12)N1C([2H])([2H])C([2H])([2H])C([2H])([2H])C([2H])([2H])C1([2H])[2H] [YF005, 10-(tert-Butyl)-3,8-dihydroxy-7-((piperidin-1-yl-d10)methyl-d2)-6H-benzofuran[3,2-c]chromen-6-one]
- MIC90 [1, 6]: ≤ 0.0039 µg/mL

Compound: [2H]C1([2H])CC(c2cccc(Cl)c2)CC([2H])([2H])N1C([2H])([2H])c1c(O)ccc2oc3c(c12)C(=O)OCc1cc(O)ccc1-3 [YF008, 8-((4-(3-Chlorophenyl)piperidin-1-yl-2,2,6,6-d4)methyl-d2)-3,9-dihydroxybenzo[5,6]oxepino[4,3-b]benzofuran-7(5H)-one]
- MIC90 [1, 7]: 0.0625 µg/mL (≈ 0.126 µM)

Compound: [2H]C(O)(CCC)C1CCN(C([2H])([2H])c2c(O)ccc3oc4c(c23)C(=O)OCc2cc(O)ccc2-4)CC1 (stereo not drawn) [YF016, 3,9-Dihydroxy-8-((4-(1-hydroxybutyl-1-d)piperidin-1-yl)methyl-d2)benzo[5,6]oxepino[4,3-b]benzofuran-7(5H)-one]
- MIC90 [1, 7]: 0.0156 µg/mL (≈ 0.0343 µM)

Compound: 3,9-Dihydroxy-8-((4-(1-hydroxybutyl-1-d)piperidin-2,2,6,6-d4-1-yl)methyl)benzo[5,6]oxepino[4,3-b]benzofuran-7(5H)-one hydrochloride [YF044]
- MIC90 [1, 4]: 0.0078 µg/mL
- AUC0-∞ ([3]; mouse, in vivo, po): 111067.0 ng·h/mL
- CL ([3]; mouse, in vivo, po): 150 mL/min/kg
- Cmax ([3]; mouse, in vivo, po): 4041.90 ng/mL
- Lung tissue distribution Cmax ([3]; mouse, in vivo, po): 43437.42 ng/g
- Tmax ([3]; mouse, in vivo, po): 0.50 h
- t1/2 ([3]; mouse, in vivo, po): 2.03 h
- AUC0-t ([3]; mouse, in vivo, po, 24 h): 11104.68 ng·h/mL

Compound: 8-((4-(Butanoyl-2,2-d2)piperidin-1-yl-4-d)methyl-d2)-3,9-dihydroxybenzo[5,6]oxepino[4,3-b]benzofuran-7(5H)-one-5,5, 10,11-d4 [YF014]
- MIC90 [1, 4]: 0.0625 µg/mL

Compound: [2H]C(O)(CCC)C1CC([2H])([2H])N(C([2H])([2H])c2c(O)ccc3oc4c(c23)C(=O)OCc2cc(O)ccc2-4)C([2H])([2H])C1 (stereo not drawn) [YF020, 3,9-Dihydroxy-8-((4-(1-hydroxybutyl-1-d)piperidin-2,2,6,6-d4-1-yl)methyl)benzo[5,6]oxepino[4,3-b]benzofuran-7(5H)-one]
- MIC90 [1, 6]: 0.0156 µg/mL (≈ 0.034 µM)

Compound: [2H]c1c(O)c(C([2H])([2H])N2C([2H])([2H])CC(C(O)CCC)CC2([2H])[2H])c2c3c(oc2c1[2H])-c1ccc(O)cc1C([2H])([2H])OC3=O (stereo not drawn) [YF021, 3,9-Dihydroxy-8-((4-(1-hydroxybutyl)piperidin-2,2,6,6-d4-1-yl)methyl-d2)benzo[5,6]oxepino[4,3-b]benzofuran-7(5H)-one-5,5,10,11-d4]
- MIC90 ([1]; H37RV, 360 h): 0.0156 µg/mL (≈ 0.0338 µM)

Compound: [2H]C1([2H])CC(C(O)CCC)CC([2H])([2H])N1C([2H])([2H])c1c(O)ccc2oc3c(c12)C(=O)OCc1cc(O)ccc1-3 (stereo not drawn) [YF019, 3,9-Dihydroxy-8-((4-(1-hydroxybutyl)piperidin-2,2,6,6-d4-1-yl)methyl)benzo[5,6]oxepino[4,3-b]benzofuran-7(5H)-one]
- MIC90 [1, 4]: 0.0078 µg/mL (≈ 0.017 µM)

Compound: 3,9-Dihydroxy-8-((4-(1-hydroxybutyl-1-d)piperidin-1-yl)methyl-d2)benzo[5,6]oxepino[4,3-b]benzofuran-7(5H)-one hydrochloride [YF040]
- MIC90 [1, 4]: 0.0156 µg/mL

Compound: [2H]C([2H])(c1c(O)ccc2oc3c(c12)C(=O)OCc1cc(O)ccc1-3)N1CCC(C(O)CCC)CC1 (stereo not drawn) [YF015, 3,9-Dihydroxy-8-((4-(1-hydroxybutyl)piperidin-1-yl)methyl-d2)benzo[5,6]oxepino[4,3-b]benzofuran-7(5H)-one]
- MIC90 [1, 7]: 0.0156 µg/mL (≈ 0.0344 µM)

Compound: [2H]C1([2H])CC(c2cccc(Cl)c2)CC([2H])([2H])N1Cc1c(O)ccc2oc3c(c12)C(=O)OCc1cc(O)ccc1-3 [YF007, 8-((4-(3-Chlorophenyl)piperidin-1-yl-2,2,6,6-d4)methyl)-3,9-dihydroxybenzo[5,6]oxepino[4,3-b]benzofuran-7(5H)-one]
- MIC90 [1, 7]: 0.125 µg/mL (≈ 0.253 µM)

Compound: [2H]C1([2H])CCCC([2H])([2H])N1Cc1c(O)cc(C(C)(C)C)c2oc3c4ccc(O)cc4oc(=O)c3c12 [YF002, 10-(tert-Butyl)-3,8-dihydroxy-7-((piperidin-1-yl-2,2,6,6-d4)methyl)-6H-benzofuran[3,2-c]chromen-6-one]
- MIC90 [1, 6]: ≤ 0.0039 µg/mL

Compound: [2H]C([2H])(CC)C(O)C1([2H])CCN(Cc2c(O)ccc3oc4c(c23)C(=O)OCc2cc(O)ccc2-4)CC1 (stereo not drawn) [YF017, 3,9-Dihydroxy-8-((4-(1-hydroxybutyl-2,2-d2)piperidin-1-yl-4-d)methyl)benzo[5,6]oxepino[4,3-b]benzofuran-7(5H)-one]
- MIC90 [1, 7]: 0.0156 µg/mL (≈ 0.0343 µM)

Compound: [2H]c1c(O)c(C([2H])([2H])N2CCC([2H])(C(O)C([2H])([2H])CC)CC2)c2c3c(oc2c1[2H])-c1ccc(O)cc1C([2H])([2H])OC3=O (stereo not drawn) [YF023, 3,9-Dihydroxy-8-((4-(1-hydroxybutyl-2,2-d2)piperidin-1-yl-1-d)methyl-d2)benzo[5,6]oxepino[4,3-b]benzofuran-7(5H)-one-5,5,10,11-d4]
- MIC90 ([1]; H37RV, 360 h): 0.0156 µg/mL (≈ 0.0339 µM)

Compound: [2H]C([2H])(CC)C([2H])(O)C1([2H])CCN(Cc2c(O)ccc3oc4c(c23)C(=O)OCc2cc(O)ccc2-4)CC1 (stereo not drawn) [YF018, 3,9-Dihydroxy-8-((4-(1-hydroxybutyl-1,2,2-d3)piperidin-1-yl-4-d)methyl)benzo[5,6]oxepino[4,3-b]benzofuran-7(5H)-one]
- MIC90 [1, 7]: 0.0156 µg/mL (≈ 0.0342 µM)

Compound: [2H]c1c(O)c(C([2H])([2H])N2C([2H])([2H])CC(c3cccc(Cl)c3)CC2([2H])[2H])c2c3c(oc2c1[2H])-c1ccc(O)cc1C([2H])([2H])OC3=O [YF009, 8-((4-(3-Chlorophenyl)piperidin-1-yl-2,2,6,6-d4)methyl-d2)-3,9-dihydroxybenzo[5,6]oxepino[4,3-b]benzofuran-7(5H)-one-5,5,10,11-d4]
- MIC90 [1, 7]: 0.125 µg/mL (≈ 0.25 µM)

Compound: [2H]c1c(O)c(C([2H])([2H])N2CCC([2H])(C([2H])(O)C([2H])([2H])CC)CC2)c2c3c(oc2c1[2H])-c1ccc(O)cc1C([2H])([2H])OC3=O (stereo not drawn) [YF024, 3,9-Dihydroxy-8-((4-(1-hydroxybutyl-1,2,2-d3)piperidin-1-yl-1-d)methyl-d2)benzo[5,6]oxepino[4,3-b]benzofuran-7(5H)-one-5,5,10,11-d4]
- MIC90 ([1]; H37RV, 360 h): 0.0156 µg/mL (≈ 0.0338 µM)

Compound: [2H]C1([2H])CC(C(=O)CCC)CC([2H])([2H])N1C([2H])([2H])c1c(O)ccc2oc3c(c12)C(=O)OCc1cc(O)ccc1-3 [YF012, 8-((4-Butanoylpiperidin-1-yl-2,2,6,6-d4)-methyl-d2)-3,9-dihydroxybenzo[5,6]oxepino[4,3-b]benzofuran-7(5H)-one]
- MIC90 [1, 7]: 0.0312 µg/mL (≈ 0.0686 µM)

Compound: [2H]c1c(O)c(C([2H])([2H])N2C([2H])([2H])CC(C(O)CCC)CC2([2H])[2H])c2c3c(oc2c1[2H])-c1ccc(O)cc1C([2H])([2H])OC3=O (stereo not drawn) [YF045, 3,9-Dihydroxy-8-((4-(1-hydroxybutyl)piperidin-2,2,6,6-d4-1-yl)methyl-d2)benzo[5,6]oxepino[4,3-b]benzofuran-7(5H)-one-5,5,10,11-d4 hydrochloride]
- MIC90 [1, 6]: 0.0156 µg/mL
